Reference: US9012481B2, “Benzoarylureido compounds, and composition for prevention or treatment of neurodegenerative brain disease containing the same” (Korea Institute of Science and Technology, priority 2009, dated 2015)
Like-named read-outs stand apart in the source and are kept apart here.

Key:
BV-2 cells = experiment: Cell viability (MTT analysis) of beta-amyloid treated BV-2 cells; format: cell-based; conditions: Mus musculus, BV-2 cells, average of three experiments
Description: Beta-amyloid (Aβ25-35, Sigma Chemical Co., St. Louis, Mo., USA) was diluted with aseptic desalted water and preservative solution (1 mM, GIBCO), and kept in aliquots at −70° C. To the treatment of beta-amyloid, beta-amyloid preservative solution was diluted to desired concentrations in a treatment medium (DMEM, GIBCO). The reagents were newly provided as a preservative solution (10 mM) under DMSO (dimethylsulfoxide), and diluted in treatment medium to desired concentrations.
BV-2 microglia cells (allotted from Pharmacology Division of Ajou University) were cultivated in DMEM (Dulbecco's Modified Eagle's Medium) supplemented with 5% fetal bovine serum (Invitrogen, Carlsbad, Calif., USA), sou/Ml penicillin (Invitrogen, Carlsbad, Calif., USA), and 50 μg/Ml streptomycin (Invitrogen, Carlsbad, Calif., USA) under the atmosphere condition with 5% CO2 and 95% air at 37° C. The medium was replaced once a day, the cells were plate-cultured in a density according to the scale of each experiment.
BV-2 cells were plate-cultured in 96-well plate at the density of 5×10^4, the cell viability was measured according to a conventional MTT analysis method and lactate dehydrogenase (LDH) analysis method. The MTT analysis depends on the metabolism ability of mitochondria of living cell, and reflexes intracellular redox states. The cultured cells were treated with MTT a solution (final concentration: 1 mg/Ml) for 4 hours. Deep blue formazan crystal generated in the original cells was dissolved in a lysis buffer, and then, the absorbance was detected at 595 nm with microplate reader. The LDH activity released from the culture medium was detected, which was evaluated as a cell death index. The culture medium was added to a reagent (test, Sigma Chemical Co, St. Louis, Mo., USA) containing sodium lactate, NADH and sodium pyruvate, and then, the absorbance reduction by NADH at 340 nm was measured. The result was calculated assuming that the LDH activity in homogenate solution of the non-treated control is 100%.
[…] For microscope analysis, BV-2 cells were used in 6-well plate at the density of 5×10^5 cells/well, for MTT analysis, BV-2 cells were used in 96-well plate at the density of 5×10^4 cells/well.
The obtained prevention effects of KHG25967 compound on toxicity induced by beta-amyloid in BV-2 cells were FIGS. 1A and 1b.
For MTT analysis, BV-2 cells were used on 96-well plate in the density of 5×10^4 cells/well. The quantitative analysis results (unit: %) for the cell viability obtained by MTT analysis were shown in Table 2, wherein the values are represented by the average of three experiments per each concentration.

[1] = BV-2, read-out: cell viability by MTT analysis, compound 500 nM for 24 hours after 50 μM beta-amyloid for 2 hours
[2] = compound 500 nM for 24 hours after 50 μM beta-amyloid for 2 hours, read-out: cell viability by MTT analysis

| Structure (SMILES) | melting point [°C] | viability at 0.5 µM (BV-2 cells; [1]) [%] | viability at 0.5 µM (BV-2 cells; [2]) [%] |
| --- | --- | --- | --- |
| Cc1ccc2nc(NC(=O)NCC(=O)[O-])sc2c1.[K+] [KHG26216, potassium 2-(3-(6-methylbenzo[d]thiazole-2-yl)ureido)acetate] | 236 | 62 |  |
| Cc1cccc2sc(NC(=O)NCC(=O)[O-])nc12.[K+] [KHG26217, potassium 2-(3-(4-methylbenzo[d]thiazole-2-yl)ureido)acetate] | 264.4 | 49 |  |
| O=C([O-])CCNC(=O)Nc1nc2ccccc2s1.[K+] [KHG26220, potassium 3-(3-benzo[d]thiazole-2-ylureido)propanoate] | 249 | 33 |  |
| O=C([O-])CCCNC(=O)Nc1nc2ccccc2s1.[K+] [KHG26221, potassium 4-(3-benzo[d]thiazole-2-ylureido)butanoate] | 241 | 44 |  |
| O=C(NCCO)Nc1nc2ccccc2s1 [KHG26279, 1-(benzo[d]thiazole-2-yl)-3-(2-hydroxyethyl)urea] | 223 |  | 36 |
| Cn1c(NC(=O)NCC(=O)O)nc2ccccc21 [KHG26280, 2-(3-(1-methyl-1H-benzo[d]imidazole-2-yl)ureido)acetic acid] | 200 |  | 33 |
| CCOC(=O)CNC(=S)Nc1nc2ccccc2n1C [KHG26303, ethyl 2-(3-(1-methyl-1H-benzo[d]imidazole-2-yl)thioureido)acetate] | 185 |  | 48 |
| CCOC(=O)CNC(=S)Nc1nc2c(C)cccc2s1 [KHG26306, ethyl 2-(3-(4-methylbenzo[d]thiazole-2-yl)thioureido)acetate] | 219 |  | 62 |
| CCOC(=O)CNC(=S)Nc1nc2c(Cl)cccc2s1 [KHG26312, ethyl 2-(3-(4-chlorobenzo[d]thiazole-2-yl)thioureido)acetate] | 198 |  | 55 |
| O=C(O)CNC(=S)Nc1nc2ccccc2s1 [KHG26316, 2-(3-benzo[d]thiazole-2-ylthioureido)acetic acid] | 200 |  | 57 |
| Cn1c(NC(=S)NCC(=O)O)nc2ccccc21 [KHG26334, 2-(3-(1-methyl-1H-benzo[d]imidazole-2-yl)thioureido)acetic acid] | 172 |  | 75 |
| Cc1cc2nc(NC(=S)NCC(=O)O)sc2cc1C [KHG26335, 2-(3-(5,6-dimethylbenzo[d]thiazole-2-yl)thioureido)acetic acid] | 212 |  | 81 |
| Cc1cccc2sc(NC(=S)NCC(=O)O)nc12 [KHG26340, 2-(3-(4-methylbenzo[d]thiazole-2-yl)thioureido)acetic acid] | 214 |  | 78 |
| O=C(O)CNC(=S)Nc1nc2ccc(Cl)cc2s1 [KHG26341, 2-(3-(6-chlorobenzo[d]thiazole-2-yl)thioureido)acetic acid] | 193 |  | 67 |
| COCCNC(=O)Nc1nc2ccccc2s1 [KHG26344, 1-(benzo[d]thiazole-2-yl)-3-(2-methoxyethyl)urea] | 257 |  | 58 |
| O=C(NCc1nn[nH]n1)Nc1nc2ccccc2s1 [KHG26345] | 249 |  | 63 |

More lines, main results first:

| melting point [°C] | Structure (SMILES) | viability at 0.5 µM (BV-2 cells; [1]) [%] | viability at 0.5 µM (BV-2 cells; [2]) [%] |
| --- | --- | --- | --- |
| 204 | CCOC(=O)CNC(=S)Nc1nc2ccccc2s1 [KHG26304, ethyl 2-(3-benzo[d]thiazole-2-ylthioureido)acetate] |  | 41 |
| 290.8 | CCOC(=O)CNC(=S)Nc1nc2ccc(C)cc2s1 [KHG26305, ethyl 2-(3-(6-methylbenzo[d]thiazole-2-yl)thioureido)acetate] |  | 37 |
| 255 | CCOC(=O)CNC(=S)Nc1nc2cc(C)c(C)cc2s1 [KHG26307, ethyl 2-(3-(5,6-dimethylbenzo[d]thiazole-2-yl)thioureido)acetate] |  | 48 |
| 324 | CCOC(=O)CNC(=S)Nc1nc2ccc(OC)cc2s1 [KHG26308, ethyl 2-(3-(6-methoxybenzo[d]thiazole-2-yl)thioureido)acetate] |  | 44 |
| 183 | CCOC(=O)CNC(=S)Nc1nc2ccc(OCC)cc2s1 [KHG26309, ethyl 2-(3-(6-ethoxybenzo[d]thiazole-2-yl)thioureido)acetate] |  | 65 |
| 160 | CCOC(=O)CNC(=S)Nc1nc2ccc(F)cc2s1 [KHG26310, ethyl 2-(3-(6-fluorobenzo[d]thiazole-2-yl)thioureido)acetate] |  | 30 |
| 184 | CCOC(=O)CNC(=S)Nc1nc2ccc(Cl)cc2s1 [KHG26311, ethyl 2-(3-(6-chlorobenzo[d]thiazole-2-yl)thioureido)acetate] |  | 67 |
| 200 | CCOc1ccc2nc(NC(=S)NCC(=O)O)sc2c1 [KHG26336, 2-(3-(6-ethoxybenzo[d]thiazole-2-yl)thioureido)acetic acid] |  | 67 |
